The subject of data set [1] is Rat Aortic Endothelial Cells. Briefly: Fluorescence microscopy NO imaging in living cells with NO donor addition. The settings on record: for absorptivity of the dye into the cells: living cells, fluorescence microscopy. It is filed as cell-based. The source says: Rat Aortic Endothelial Cells acquired from Cell Biologics were used for the cell based experiments. Fetal Bovine Serum (FBS) and DMSO were bought from ATCC. Penicillin-Streptomycin and endothelial cell growth supplement from bovine neural tissue were bought from Sigma Aldrich. DMEM/F-12 medium, PBS and Trypsin (0.05% EDTA) were bought from Invitrogen. Cell culture flasks and dishes were bought from Fisher Scientific. MAHMA/NO was bought from Cayman Chemicals.
Cell culture: Rat Aortic Endothelial Cells were grown (passage 4-10) in DMEM/F-12 medium supplemented with 10% FBS, 1% penicillin-streptomycin, and endothelial cell growth supplement in a humidified tissue culture incubator at 37° C. equilibrated with 95% air/5% CO2. For experimentation, cells were cultured in 35×10 mm dishes seeded with 2×10^5 cells and used at 60-80% confluency.
After the loading phase with the organometallic Re-complex (10 μM for 45 min) cells were rinsed off excess dye using PBS buffer solution. This was followed by an exposure to 10 μM MAHMA/NO for 10-15 minutes. Images were then acquired with a fluorescence microscope (Olympus IX 81 fitted with a CCD camera (Qimaging) at 350 nm (excitation) and 450 nm (emission) with 20× zoom, with exposition time of 2668 ms. The data were analyzed with IPLAB software (BioVision Technologies).
Conditions of incubator: 37° C., 21% O2, 5% CO2, with cell culture harvested and plated for at least 24 hours.
[…] of Re(phen)(THF)(CO)2(CF3SO3) or Re(phen)(CO)2(PPh3)(CF3SO3) (1.6×10^−3 M) was prepared in THF. 62.5 μL of this solution was added to 138 μL of acetone. This new solution was added to 800 μL of 10 mM PBS (Phosphate Buffer Saline) buffer solution, resulting in v/v ratios of 6% THF, 14% acetone, and 80% Buffer. This new solution was further diluted 1/10 with PBS Buffer before added to the cells, resulting to final solvent composition of 0.6% THF, 1.4% acetone, and 98% v/v aqueous buffer. This final solution contains the organometallic Re dye at 10 μM concentration, (solution A) before contact with NO donor solutions.
A blank (0 μM NO donor: MAHMA NONOate) and 3 stock solutions (100 μM, 500 μM, 1 mM) MAHMA NONOate were prepared in NaOH 0.01M, which after addition to the media result to final NO donor concentrations of 0 μM, 1 μM, 5 μM, 10 μM.
The old media were poured out from the plates. The plates were rinsed 2 times with 1 mL PBS 10 mM. The next reagents were added to each plate in the following order: […] of DMEM/FBS/Penicillin Media, […] of PBS 10 mM, and 100 μL of Re complex stock in 20% organic mixture. The plates were incubated for 75 minutes.
The reactive media was poured out from the plate. The plates were rinsed 2 times with 1 mL PBS 10 mM. […]

Data set [2] can be described thus: Fluorescence spectroscopy NO sensing in solution after addition of NO donor MAHMA-NONOate. As to conditions: NO donor MAHMA-NONOate in buffer solution; aerobic and anaerobic conditions for the THF complex. The procedure:
A pilot Re(I)-phenanthroline complex: Re(phen)(CO)2(THF)(CF3SO3) complex was synthesized from Re(phen)(CO)3(CF3SO3) (Scheme 3) by photochemical substitution of a CO with THF in situ and was tested for NO sensing by fluorescence spectroscopy after the addition of the NO donor: MAHMA-NONOate (Cayman Pharmaceuticals) at the are 10 μM-200 μM range (FIGS. 1 and 2). […] It is worth mentioning the dye is highly sensitive to NO, since it is only used at a concentration of only 10 μM, and responds to concentrations of NO donor in the μM level as well (FIG. 5). […] Furthermore live cell experiments with Re(phen)(CO)2(THF)(CF3SO3) prepared by thermal substitution gave similar results.
A stepwise experimental protocol for preparation and testing of the Rhenium organometallic sensor and comparison with existing technology is as follows: • 1) Preparation of a stock solution of a 2.0 mM NO donor solution by dissolving 0.6 mg of (Z)-1-[N-Methyl-N-[6-(N-methylammoniohexyl)amino]]diazen-1-ium-1,2-diolate (Methylamine hexamethylene methylamine NONOate or MAHMA NONOate) in 0.01 M NaOH. Solution is kept at 4° C. until use. • 2) Preparation of a 1.0 mM stock solution of probe LRe(CO)3(OSO2CF3) in DMSO or THF (L is phen or substituted analog). For the Re probe the solution is undergoing the following steps: […]

On to `C1CCOC1.O=[C]=[Re]1(=[C]=O)([O]S(=O)(=O)C(F)(F)F)[N]2C=CC=c3ccc4c(c32)[N]1C=CC=4` [Re(phen)(CO)2(THF)(CF3SO3)], for which the “absorptivity of the dye into the cells” value in data set [1] (dye 10 μM) is “good absorptivity”. Also, the “fluorescence response to NO donor addition in living cells” value in data set [1] (dye 10 μM, MAHMA-NONOate 0-10 μM, λexc=350 nm, λem=450 nm) is “direct response”. For the same compound, the “fluorescent response to NO donor addition in solution” value in data set [2] is “responds directly to NO”.
Consider `O=[C]=[Re]1(=[C]=O)([O]S(=O)(=O)C(F)(F)F)([PH](c2ccccc2)(c2ccccc2)c2ccccc2)[N]2C=CC=c3ccc4c(c32)[N]1C=CC=4` [Re(phen)(CO)2(PPh3)(CF3SO3)], for which the “toxicity to the cells” value in data set [1] (at the 10 μM level) is “no toxicity”. Besides, the “absorptivity of the dye into the cells” value in data set [1] (dye 10 μM) is “good dye absorptivity into cells”. Further, the “fluorescent response to NO donor addition in solution” value in data set [2] is “shows response to NO addition”.

The values above are taken from patent US8906694B2, “Organometallic fluorescent sensors for nitric oxide detection and imaging” (The Florida International University Board of Trustees, priority 2012, dated 2014).
